Patent US8338414B2, “Immunosuppressive agent and anti-tumor agent comprising heterocyclic compound as active ingredient” (Zenyaku Kogyo KabushikiKaisha, priority 2005, dated 2012)
Where two headings read alike, the source gives them in different places.

Legend:
mouse spleen cells = test: Proliferation inhibition assay for mouse spleen cells; format: cell-based; settings: 72 h, 3 days, Alamar Blue
Method: Spleen cells (2×10^6 cells/mL) prepared from C57BL/6N female mice (8 weeks old, purchased from Charles River Laboratories Japan Inc.) were suspended in RPMI 1640 medium (containing 10% fetal bovine serum, 10 mM HEPES, 1 mM pyruvic acid, 4.5 g/L glucose, 100 units/mL penicillin, and 0.1 mg/mL streptomycin), and seeded in wells of a 96 well plate at 0.225 mL per well. Serial dilutions of test substances were added to respective wells, and then concanavalin A (Con A, 3 μg/mL), lipopolysaccharide (LPS, 100 μg/mL), or an anti-mouse IgM antibody (100 μg/mL) were added. Thereafter, they were incubated under conditions of carbon dioxide 5% at a temperature 37° C. for 3 days. Next, Alamar Blue solution was added at 50 μL per 150 μL, and after having cultured for one day, the fluorescence intensity at 590 nm using an excitation wavelength of 530 nm was determined by Cytoflour 4000 (Applied Biosystems).

[1] = test system: human peripheral blood mononuclear cells; test: Proliferation inhibition assay for human peripheral blood mononuclear cells; format: cell-based; settings: Homo sapiens, 72 h; PBMC, anti-CD3 and anti-CD28 antibody, 3 days, Alamar Blue
Method: 4 mL of blood collected from healthy subjects was placed on 3 mL of MonoPoly Resolving Medium, and after centrifugation, the mononuclear cell (PBMC) fraction was collected. After washing with saline, PBMC (1×10^5 cells/mL) was suspended in RPMI 1640 medium (containing 10% fetal bovine serum, 10 mM HEPES, 1 mM pyruvic acid, and 4.5 g/L glucose). Next, after having added an anti-CD28 antibody (1 μg/mL) to the suspension, they were seeded on an anti-human CD3 T cell activation plate (BD Bioscience) at a capacity of 0.135 mL per well. Then, serial dilutions of test substances were added to respective wells, and incubated under conditions of carbon dioxide 5% at a temperature 37° C. After 3 days, Alamar Blue solution was added at 50 μL per well, and after incubation for one day, a fluorescence intensity at 590 nm using an excitation wavelength of 530 nm was determined by Cytoflour 4000 (Applied Biosystems).

[2] = test system: Rabbit synoviocytes HIG-82; test: Inhibition assay for proliferation of rabbit synoviocyte; format: cell-based; settings: Oryctolagus cuniculus, 72 h; HIG-82, 3 days, Alamar Blue
Method: Rabbit synoviocytes HIG-82 suspended in HAM medium (containing 10% fetal bovine serum, 25 mM HEPES, and 0.1 mg/mL kanamycin) (with 4×10^4 cells/mL) were seeded in wells of a 96 well plate at 0.135 mL per well. Then, 15 μL of each of serial dilutions of test substances was added to a respective well, and incubated under conditions of carbon dioxide 5% at a temperature 37° C. Alamar Blue solution was added at 50 μL per well on day 0 and day 3, and incubated for one day, and thereafter fluorescence intensity at 590 nm using an excitation wavelength of 530 nm was determined by Cytoflour 4000 (Applied Biosystems).

[3] = test system: allogeneic mixed lymphocyte reaction; test: Allogeneic mixed lymphocyte reaction; format: cell-based, mouse; settings: Mus musculus, Lymphocyte; C57BL/6N spleen stimulator cells, BALB/c lymph node responder cells, 86 hours, BrdU
Method: Spleen cells prepared from C57BL/6N female mice (8-10 weeks old, purchased from Charles River Laboratories Japan Inc.) and peripheral lymph node mononuclear cells prepared from BALB/c female mice (8-10 weeks old, purchased from Charles River Laboratories Japan Inc.) were used as stimulator cells and responder cells, respectively. The respective cells were suspended in RPMI 1640 medium (containing 10% fetal bovine serum, 100 units/mL penicillin, and 0.1 mg/mL streptomycin) (with 2×10^6 cells/mL).

Daudi cells = test: Proliferation inhibitory activity on hematologic neoplasm cells, Daudi; format: cell-based; settings: Homo sapiens, Daudi, 72 h; 3 days, Alamar Blue
Method: (§1) Daudi cells (5×10^5 cells/mL), Jurkat cells (5×10^5 cells/mL), THP-1 cells (5×10^5 cells/mL), U 937 cells (5×10^5 cells/mL), and HL 60 cells (5×10^5 cells/mL) suspended in RPMI 1640 medium (containing 10% fetal bovine serum, 10 mM HEPES, 1 mM pyruvic acid, 4.5 g/L glucose, 100 units/mL penicillin, and 0.1 mg/mL streptomycin) were seeded in 96 well plates at a capacity of 0.135 mL per well. Serial dilutions of test substances were added to respective wells at 15 μL/well, and incubated under conditions of carbon dioxide 5% at 37° C. for 3 days. Thereafter, Alamar Blue solution was added at 50 μL, and after incubation for one day, the fluorescence intensity at 590 nm using an excitation wavelength of 530 nm was determined by Cytoflour 4000 (Applied Biosystems).

Jurkat cells = test: Proliferation inhibitory activity on hematologic neoplasm cells, Jurkat; format: cell-based; settings: Homo sapiens, Jurkat, 72 h; 3 days, Alamar Blue
Method: as §1

HL 60 cells = test: Proliferation inhibitory activity on hematologic neoplasm cells, HL60; format: cell-based; settings: Homo sapiens, HL-60, 72 h; 3 days, Alamar Blue
Method: as §1

THP-1 cells = test: Proliferation inhibitory activity on hematologic neoplasm cells, THP-1; format: cell-based; settings: Homo sapiens, THP-1, 72 h; 3 days, Alamar Blue
Method: as §1

U 937 cells = test: Proliferation inhibitory activity on hematologic neoplasm cells, U937; format: cell-based; settings: Homo sapiens, U-937, 72 h; 3 days, Alamar Blue
Method: as §1

fulminant hepatitis = test: Fulminant hepatitis model (galactosamine and LPS); format: in vivo, mouse; settings: BALB/c mice, galactosamine 800 mg/kg and LPS 110 μg/kg i.p.
Method: BALB/c male mice (7 weeks old, purchased from Charles River Laboratories Japan Inc.) were used in the experiment. After having orally administered the test substances suspended in 5% HPC, galactosamine (800 mg/kg) and LPS (110 μg/kg) were intraperitoneally administered. Then, survival rates at 72 hours after administration were obtained.

[4] = test system: PC-3 prostate cancer cells; test: Proliferation inhibitory activity on solid tumor cells, PC-3; format: cell-based; settings: 72 hours
Method: (§2) Used in the test were MCF-7 cells which were established from human breast cancer and were cultured routinely under the conditions of 37° C. and 5% CO2, in MEM medium supplemented with 10% fetal calf serum, 25 mM of HEPES and 0.1 mg/ml kanamycin. The MCF-7 cells in a logarithmic growth phase were treated with trypsin/EDTA to prepare single cell suspension adjusted to 4.0×10^4 cells/ml in MEM medium (supplemented with 10% fetal calf serum, 25 mM of HEPES and 0.1 mg/ml kanamycin). Test compounds were dissolved in DMSO and diluted with RPMI 1640 medium (supplemented with 10% fetal calf serum, 25 mM of HEPES and 0.1 mg/ml kanamycin) to a concentration of […] to 2.0×10^−9M.
(§3) The cell suspension was filled in a 96-wells microplate at a rate of 0.1 ml per well and was cultured for 24 hours so as to make the cells to adhere to the microplate. Then, it was added with 0.1 ml of the sample solution and cultured at 37° C. for 72 hours in 5% CO2.
(§4) 50% Growth inhibition concentrations (GI50 μM) were calculated from growth inhibitions at various sample concentrations.
(§5) In the foregoing, when the cells other than MCF-7 are used, instead of adding 10% fetal bovine serum, the following media were used, and the following single cell suspensions were prepared. • PC-3 prostate cancer cells: 10% fetal bovine serum in F12K medium, single cell suspension of 2×10^4 cells; • A549 lung cancer cells: 10% fetal bovine serum in DMEM medium, single cell suspension of 1.5×10^4 cells; • WiDr colon cancer cells: 10% fetal bovine serum in MEM medium, single cell suspension of 3×10^4 cells; • B16F10 melanoma cells: 10% fetal bovine serum in RPMI 1640 medium, single cell suspension of 1×10^4 cells;

B16F10 melanoma cells = test: Proliferation inhibitory activity on solid tumor cells, B16F10; format: cell-based; settings: Mus musculus, B16-F10; 72 hours
Method: as §2, §3, §4, §5

WiDr colon cancer cells = test: Proliferation inhibitory activity on solid tumor cells, WiDr; format: cell-based; settings: Homo sapiens, 72 hours
Method: as §2, §3, §4, §5

A549 lung cancer cells = test: Proliferation inhibitory activity on solid tumor cells, A549; format: cell-based; settings: Homo sapiens, 72 hours
Method: as §2, §3, §4, §5

MCF-7 cells = test: Proliferation inhibitory activity on solid tumor cells, MCF-7; format: cell-based; settings: Homo sapiens, MCF7; 72 hours
Method: as §2, §3, §4

[5] = LPS 100 μg/mL, read-out: Inhibition of LPS response
[6] = concanavalin A 3 μg/mL, read-out: Inhibition of Con A response
[7] = anti-mouse IgM antibody 100 μg/mL, read-out: Inhibition of Anti-IgM antibody response

| Compound | IC50 (mouse spleen cells; [5]) | IC50 (mouse spleen cells; [6]) | IC50 [1] | IC50 [2] | IC50 [3] | IC50 (Daudi cells) | IC50 (Jurkat cells) | IC50 (HL 60 cells) | IC50 (THP-1 cells) | IC50 (U 937 cells) | melting point | IC50 (mouse spleen cells; [7]) | Survival Rate after 72 Hours (fulminant hepatitis; 100 mg/kg oral) | Survival Rate after 72 Hours (fulminant hepatitis; 50 mg/kg oral) | GI50 [4] | GI50 (B16F10 melanoma cells) | GI50 (WiDr colon cancer cells) | GI50 (A549 lung cancer cells) | GI50 (MCF-7 cells) |
| --- | --- | --- | --- | --- | --- | --- | --- | --- | --- | --- | --- | --- | --- | --- | --- | --- | --- | --- | --- |
| Cc1nc2ccccc2n1-c1nc(N2CCOCC2)nc(N2CCOCC2)n1 [Compound 1, 2-(2-Methylbenzimidazol-1-yl)-4,6-dimorpholino-1,3,5-triazine] | 100 to 10000 nM | 100 to 10000 nM | 1780 nM | 4850 nM | 670 nM | 827 nM | 5020 nM | > 10000 nM | 535 nM | > 10000 nM | 218 to 220 °C (dec.) |  |  |  |  |  |  |  |  |
| OCc1nc2ccccc2n1-c1nc(N2CCOCC2)nc(N2CCOCC2)n1 [Compound 3, 4,6-Dimorpholino-2-(2-hydroxymethylbenzimidazol-1-yl)-1,3,5-triazine] | 100 to 10000 nM | 100 to 10000 nM | 1130 nM | 1780 nM | 600 nM | 379 nM | 3270 nM | 3160 nM | 135 nM | 4140 nM | 208 to 210 °C (dec.) |  |  |  |  |  |  |  |  |
| Nc1nc2ccccc2n1-c1nc(N2CCOCC2)nc(N2CCOCC2)n1 [Compound 6, 2-(2-Aminobenzimidazol-1-yl)-4,6-dimorpholino-1,3,5-triazine] | 100 to 10000 nM | 100 to 10000 nM | 2080 nM | 6350 nM | 3630 nM | 803 nM | 6620 nM | > 10000 nM | 5540 nM | > 10000 nM |  | 100 to 10000 nM | 40% |  |  |  |  |  |  |
| Cc1cccc2c1nc(C(F)F)n2-c1nc(N2CCOCC2)nc(N2CCOCC2)n1 [Compound 10, 2-(2-Difluoromethyl-4-methylbenzimidazol-1-yl)-4,6-dimorpholino-1,3,5-triazine] | 10000 to 100000 nM | 100 to 10000 nM | 825 nM | 6510 nM | 344 nM | 160 nM | > 10000 nM | 1790 nM | 794 nM | > 10000 nM | 259 to 260 °C | 100 to 10000 nM |  |  |  |  |  |  |  |
| Nc1cccc2c1nc(C(F)F)n2-c1nc(N2CCOCC2)nc(N2CCOCC2)n1 [Compound 14, 2-(4-Amino-2-difluoromethylbenzimidazol-1-yl)-4,6-dimorpholino-1,3,5-triazine] |  |  | 92.3 nM | 484 nM | 227 nM | 65.5 nM | 1340 nM | 396 nM | 286 nM | 1110 nM | 214 to 216 °C (dec.) |  |  |  |  |  |  |  |  |
| Oc1cccc2c1nc(C(F)F)n2-c1nc(N2CCOCC2)nc(N2CCOCC2)n1 [Compound 15, 2-(2-Difluoromethyl-4-hydroxybenzimidazol-1-yl)-4,6-dimorpholino-1,3,5-triazine] |  |  | 2.91 nM | 85.6 nM | 42.1 nM | 4.92 nM | 116 nM | 35.8 nM | 45.4 nM | 217 nM |  |  | 0% | 17% |  |  |  |  |  |
| Oc1ccc2nc(C(F)F)n(-c3nc(N4CCOCC4)nc(N4CCOCC4)n3)c2c1 [Compound 16, 2-(2-Difluoromethyl-6-hydroxybenzimidazol-1-yl)-4,6-dimorpholino-1,3,5-triazine] |  |  | 12.3 nM | 163 nM | 460 nM | 10.3 nM | 357 nM | 67.2 nM | 112 nM | 604 nM | > 250 °C |  |  |  |  |  |  |  |  |
| Oc1cccc2c1nc(C(F)F)n2-c1nc(N2CCOCC2)cc(N2CCOCC2)n1 [Compound 18, 2-(2-Difluoromethyl-4-hydroxybenzimidazol-1-yl)-4,6-dimorpholinopyrimidine] |  |  |  |  |  |  |  |  |  |  |  |  | 80% | 50% |  |  |  |  |  |
| COc1ccc2c(c1)nc(C(F)F)n2-c1nc(N2CCOCC2)nc(N2CCOCC2)n1 [Compound 23, 2-(2-Difluoromethyl-5-methoxybenzimidazol-1-yl)-4,6-dimorpholino-1,3,5-triazine] |  |  | 19.2 nM | 121 nM | 258 nM | 13.2 nM | 229 nM | 139 nM | 68.6 nM | 345 nM |  |  |  |  |  |  |  |  |  |
| OCCCN1CCN(c2nc(N3CCOCC3)nc(-n3c(C(F)F)nc4ccccc43)n2)CC1 [Compound 34, 2-(2-Difluoromethylbenzimidazol-1-yl)-4-[4-(3-hydroxypropyl)piperazin-1-yl]-6-morpholino-1,3,5-triazine] |  |  |  |  |  |  |  |  |  |  |  |  |  |  | 550 nM | 2910 nM | 2070 nM | 1380 nM | 140 nM |
